Assay results from article PMC11240139, “Exploring the antitumor potential of novel quinoline derivatives via tubulin polymerization inhibition in breast cancer; design, synthesis and molecular docking” (RSC Advances, 2024).

How the values were obtained:
RXF 393 (renal cancer) = assay: NCI-60 SRB cytotoxicity screen; assay type: cell-based; conditions: Homo sapiens; RXF 393, single dose 10 μM; read-out: growth inhibition (GI%)
SW-620 (colon cancer) = assay: NCI-60 SRB cytotoxicity screen; assay type: cell-based; conditions: Homo sapiens; SW-620, single dose 10 μM; read-out: growth inhibition (GI%)
HCC-2998 (colon cancer) = assay: NCI-60 SRB cytotoxicity screen; assay type: cell-based; conditions: Homo sapiens; HCC-2998, single dose 10 μM; read-out: growth inhibition (GI%)
[1] = tested on: EKVX (non-small cell lung cancer); assay: NCI-60 SRB cytotoxicity screen; assay type: cell-based; conditions: Homo sapiens, single dose 10 μM, read-out: growth inhibition (GI%)
[2] = tested on: NCI-H460 (non-small cell lung cancer); assay: NCI-60 SRB cytotoxicity screen; assay type: cell-based; conditions: Homo sapiens; NCI-H460, single dose 10 μM; read-out: growth inhibition (GI%)
RPMI-8226 (leukemia) = assay: NCI-60 SRB cytotoxicity screen; assay type: cell-based; conditions: Homo sapiens; RPMI-8226, single dose 10 μM; read-out: growth inhibition (GI%)
SK-MEL-2 (melanoma) = assay: NCI-60 SRB cytotoxicity screen; assay type: cell-based; conditions: Homo sapiens; SK-MEL-2, single dose 10 μM; read-out: growth inhibition (GI%)
PC-3 (prostate cancer) = assay: NCI-60 SRB cytotoxicity screen; assay type: cell-based; conditions: PC-3, single dose 10 μM; read-out: growth inhibition (GI%)
SR (leukemia) = assay: NCI-60 SRB cytotoxicity screen; assay type: cell-based; conditions: single dose 10 μM, read-out: growth inhibition (GI%)
SK-OV-3 (ovarian cancer) = assay: NCI-60 SRB cytotoxicity screen; assay type: cell-based; conditions: Homo sapiens; SK-OV-3, single dose 10 μM; read-out: growth inhibition (GI%)
MALME-3M (melanoma) = assay: NCI-60 SRB cytotoxicity screen; assay type: cell-based; conditions: Homo sapiens, single dose 10 μM, read-out: growth inhibition (GI%)
[3] = tested on: HOP-92 (non-small cell lung cancer); assay: NCI-60 SRB cytotoxicity screen; assay type: cell-based; conditions: Homo sapiens; HOP-92, single dose 10 μM; read-out: growth inhibition (GI%)
[4] = tested on: A549/ATCC (non-small cell lung cancer); assay: NCI-60 SRB cytotoxicity screen; assay type: cell-based; conditions: Homo sapiens, single dose 10 μM, read-out: growth inhibition (GI%)
HL-60(TB) (leukemia) = assay: NCI-60 SRB cytotoxicity screen; assay type: cell-based; conditions: Homo sapiens, single dose 10 μM, read-out: growth inhibition (GI%)
TK-10 (renal cancer) = assay: NCI-60 SRB cytotoxicity screen; assay type: cell-based; conditions: Homo sapiens; TK-10, single dose 10 μM; read-out: growth inhibition (GI%)
UACC-257 (melanoma) = assay: NCI-60 SRB cytotoxicity screen; assay type: cell-based; conditions: Homo sapiens; UACC-257, single dose 10 μM; read-out: growth inhibition (GI%)
MCF7 (breast cancer) = assay: NCI-60 SRB cytotoxicity screen; assay type: cell-based; conditions: Homo sapiens; MCF7, single dose 10 μM; read-out: growth inhibition (GI%)
[5] = tested on: HOP-62 (non-small cell lung cancer); assay: NCI-60 SRB cytotoxicity screen; assay type: cell-based; conditions: Homo sapiens; HOP-62, single dose 10 μM; read-out: growth inhibition (GI%)
KM12 (colon cancer) = assay: NCI-60 SRB cytotoxicity screen; assay type: cell-based; conditions: Homo sapiens; KM12, single dose 10 μM; read-out: growth inhibition (GI%)
786-0 (renal cancer) = assay: NCI-60 SRB cytotoxicity screen; assay type: cell-based; conditions: Homo sapiens; 786-0, single dose 10 μM; read-out: growth inhibition (GI%)
CAKI-1 (renal cancer) = assay: NCI-60 SRB cytotoxicity screen; assay type: cell-based; conditions: Homo sapiens; CAKI-1, single dose 10 μM; read-out: growth inhibition (GI%)
SK-MEL-5 (melanoma) = assay: NCI-60 SRB cytotoxicity screen; assay type: cell-based; conditions: Homo sapiens; SK-MEL-5, single dose 10 μM; read-out: growth inhibition (GI%)
OVCAR-4 (ovarian cancer) = assay: NCI-60 SRB cytotoxicity screen; assay type: cell-based; conditions: Homo sapiens; OVCAR-4, single dose 10 μM; read-out: growth inhibition (GI%)
UACC-62 (melanoma) = assay: NCI-60 SRB cytotoxicity screen; assay type: cell-based; conditions: Homo sapiens; UACC-62, single dose 10 μM; read-out: growth inhibition (GI%)
MDA-MB-435 (melanoma) = assay: NCI-60 SRB cytotoxicity screen; assay type: cell-based; conditions: Homo sapiens, MDA-MB-435, read-out: growth inhibition (GI%);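 note: growth inhibition in percent at a single 10 µM dose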
BT-549 (breast cancer) = assay: NCI-60 SRB cytotoxicity screen; assay type: cell-based; conditions: Homo sapiens; BT-549, single dose 10 μM; read-out: growth inhibition (GI%)
SF-295 (CNS cancer) = assay: NCI-60 SRB cytotoxicity screen; assay type: cell-based; conditions: Homo sapiens; SF-295, single dose 10 μM; read-out: growth inhibition (GI%)
[6] = tested on: NCI-H522 (non-small cell lung cancer); assay: NCI-60 SRB cytotoxicity screen; assay type: cell-based; conditions: Homo sapiens; NCI-H522, single dose 10 μM; read-out: growth inhibition (GI%)
HCT-15 (colon cancer) = assay: NCI-60 SRB cytotoxicity screen; assay type: cell-based; conditions: Homo sapiens; HCT-15, single dose 10 μM; read-out: growth inhibition (GI%)
ACHN (renal cancer) = assay: NCI-60 SRB cytotoxicity screen; assay type: cell-based; conditions: Homo sapiens, single dose 10 μM, read-out: growth inhibition (GI%)

CCc1cccc2cc(-c3cc(-c4ccc(OC)cc4)[nH]c(=O)c3C#N)c(Cl)nc12 [Compound 4a, 4-(2-Chloro-8-ethylquinolin-3-yl)-6-(4-methoxyphenyl)-2-oxo-1,2-dihydropyridine-3-carbonitrile] gave an inhibition at 10 µM (RXF 393 (renal cancer)) of less than 10%, an inhibition at 10 µM (SW-620 (colon cancer)) of less than 10% and an inhibition at 10 µM (HCC-2998 (colon cancer)) of less than 10%. For the same compound, the inhibition at 10 µM [1] was 12.3%, the inhibition at 10 µM [2] was less than 10% and the inhibition at 10 µM (RPMI-8226 (leukemia)) was less than 10%. It also gave an inhibition at 10 µM (SK-MEL-2 (melanoma)) of less than 10%, an inhibition at 10 µM (PC-3 (prostate cancer)) of less than 10% and an inhibition at 10 µM (SR (leukemia)) of less than 10%. It also gave an inhibition at 10 µM (SK-OV-3 (ovarian cancer)) of less than 10%, an inhibition at 10 µM (MALME-3M (melanoma)) of less than 10% and an inhibition at 10 µM [3] of 29.8%. It also gave an inhibition at 10 µM [4] of less than 10%, a melting point of 270 to 272 °C and an inhibition at 10 µM (HL-60(TB) (leukemia)) of less than 10%. The inhibition at 10 µM (TK-10 (renal cancer)) was less than 10%, the inhibition at 10 µM (UACC-257 (melanoma)) was less than 10% and the inhibition at 10 µM (MCF7 (breast cancer)) was 16%. It also gave an inhibition at 10 µM [5] of less than 10%, an inhibition at 10 µM (KM12 (colon cancer)) of less than 10% and an inhibition at 10 µM (786-0 (renal cancer)) of 11.4%. The inhibition at 10 µM (CAKI-1 (renal cancer)) was 34.9%, the inhibition at 10 µM (SK-MEL-5 (melanoma)) was 13.9% and the inhibition at 10 µM (OVCAR-4 (ovarian cancer)) was 21.9%. It also gave an inhibition at 10 µM (UACC-62 (melanoma)) of less than 10%, an inhibition at 10 µM (MDA-MB-435 (melanoma)) of less than 10% and an inhibition at 10 µM (BT-549 (breast cancer)) of 15.3%. For the same compound, the inhibition at 10 µM (SF-295 (CNS cancer)) was 16.7%, the inhibition at 10 µM [6] was 11.9% and the inhibition at 10 µM (HCT-15 (colon cancer)) was less than 10%. The inhibition at 10 µM (ACHN (renal cancer)) was less than 10%.

Work on CCc1cccc2cc(C=CC(=O)c3ccc(F)cc3)c(Cl)nc12 [Compound 3d, 3-(2-Chloro-8-ethylquinolin-3-yl)-1-(4-fluorophenyl)prop-2-en-1-one] yielded an inhibition at 10 µM (RXF 393 (renal cancer)) of less than 10%, an inhibition at 10 µM (SW-620 (colon cancer)) of less than 10% and an inhibition at 10 µM (HCC-2998 (colon cancer)) of less than 10%. It also gave an inhibition at 10 µM [1] of less than 10%, an inhibition at 10 µM [2] of less than 10% and an inhibition at 10 µM (RPMI-8226 (leukemia)) of less than 10%. The inhibition at 10 µM (SK-MEL-2 (melanoma)) was less than 10%, the inhibition at 10 µM (PC-3 (prostate cancer)) was less than 10% and the inhibition at 10 µM (SR (leukemia)) was less than 10%. For the same compound, the inhibition at 10 µM (SK-OV-3 (ovarian cancer)) was less than 10%, the inhibition at 10 µM (MALME-3M (melanoma)) was less than 10% and the inhibition at 10 µM [3] was less than 10%. The inhibition at 10 µM [4] was less than 10%, the melting point was 215 to 217 °C and the inhibition at 10 µM (HL-60(TB) (leukemia)) was less than 10%. It also gave an inhibition at 10 µM (TK-10 (renal cancer)) of less than 10%, an inhibition at 10 µM (UACC-257 (melanoma)) of less than 10% and an inhibition at 10 µM (MCF7 (breast cancer)) of less than 10%. For the same compound, the inhibition at 10 µM [5] was less than 10%, the inhibition at 10 µM (KM12 (colon cancer)) was less than 10% and the inhibition at 10 µM (786-0 (renal cancer)) was less than 10%. The inhibition at 10 µM (CAKI-1 (renal cancer)) was 11.8%, the inhibition at 10 µM (SK-MEL-5 (melanoma)) was less than 10% and the inhibition at 10 µM (OVCAR-4 (ovarian cancer)) was less than 10%. The inhibition at 10 µM (UACC-62 (melanoma)) was less than 10%, the inhibition at 10 µM (MDA-MB-435 (melanoma)) was less than 10% and the inhibition at 10 µM (BT-549 (breast cancer)) was less than 10%. For the same compound, the inhibition at 10 µM (SF-295 (CNS cancer)) was less than 10%, the inhibition at 10 µM [6] was less than 10% and the inhibition at 10 µM (HCT-15 (colon cancer)) was less than 10%. For the same compound, the inhibition at 10 µM (ACHN (renal cancer)) was less than 10%.
